According to patent US8778896B2, “Levoisovalerylspiramycin I, II or III, preparations, preparation methods and uses thereof” (Shenyang Tonglian Group Co., Ltd., priority 2010, dated 2014):
≈ marks a conversion by molar mass, not a printed value.

How the values were obtained:
[1] = system: pyogenic streptococcus 102; assay: MIC against the infecting test organism; assay type: cell-based; conditions: read-out: MIC
[2] = system: pyogenic streptococcus 772; assay: MIC against the infecting test organism; assay type: cell-based; conditions: read-out: MIC
[3] = system: Chlamydia Pneumoniae CWL-029; assay: Chlamydia in vitro MIC, HEp-2 cells, immunofluorescence; assay type: cell-based; conditions: Chlamydia pneumoniae, 72 h, Chlamydia Pneumoniae CWL-029, HEp-2 cells, read-out: MIC
[4] = system: pyogenic streptococcus 119; assay: MIC against the infecting test organism; assay type: cell-based; conditions: read-out: MIC
[5] = Acute toxicity on rats via oral administration; conditions: 4500 mg/kg
Description: Both mice and rats take drugs orally (levoisovalerylspiramycin I, II and III prepared in Embodiment 1)
After observing the mice and rats for two days before test, and those without abnormal conditions is carried out test. Don't give anything to eat to mice and rats overnight before test. […] […] Observe those taking drugs for one week for toxic reaction and death.

[6] = system: staphylococcus aureus21; assay: MIC against the infecting test organism; assay type: cell-based, staphylococcus aureus; conditions: read-out: MIC
[7] = system: enterococcus (106); assay: Clinical isolates, agar double dilution method; assay type: cell-based; conditions: 106 clinical isolates of enterococcus; for MIC50: read-out: MIC50; for MIC90: read-out: MIC90
[8] = system: Mycoplasma Urealyticum and Mycoplasma Pneumoniae strains; assay: Mycoplasma in vitro MIC (U-PPLO broth); assay type: cell-based; conditions: for MIC: Mycoplasma, determined 4 times, final MIC (24 h), read-out: MIC; for Uu resistant effect: in words
Description: 1. Test methods: adding U-PPLO 0.8 ml to each pore of aseptic 12-pore cell culture plate (adding 0.9 ml to inoculum control pore and 1.0 ml to medium control pore).
2. Add 10^4CCU/ml Uu inoculum 0.1 ml to each experimental pore. The final dose in the pore is 10^3CCU/ml (the medium control pore will not be added with inoculum).
3. Divide into 3 groups (100 μg/ml, 10 μg/ml and 1 μg/ml antibiotic stock solution), Use aseptic Tip to add antibiotic for test to each pore: 100 μl, 50 μl, 25 μl, 12.5 μl according to the double degradation concentration gradient. (The inoculum and medium control pores will not be added with the antibiotic, and meanwhile the antibiotic control pore is arranged.)
4. Blend all pores evenly. Seal the culture plate by tapes and place it in a 37[…] box for culture.
5. On 17-24 hours after the test, observe and record the Uu growth situation. When Uu inoculum control pore presents a positive growth, the minimal antibiotic concentration, which can suppress the growth of Uu, is the MIC of sample.

[9] = system: 12 strains of bacteria; assay: Protective effect on mouse infected with 12 strains of bacteria; assay type: in vivo; conditions: in words
Description: (§1) Test method: preparation of infection bacterial liquid: taking out the test bacterial liquid which is kept in a refrigerator at −80[…] to room temperature for about 1 h, then inoculating streptococcus pneumonia, pyogenic streptococcus and enterococcus absorbing 0.1 ml bacterial liquid respectively to 2 ml MH broth (add 10% inactivated horse serum), and inoculating 0.1 ml bacterial liquid of staphylococcus aureus to 2 ml MH broth according to the same method above; putting it in an incubator at 37[…] to be cultivated for 18 h, to obtain original bacterial liquid; diluting the original bacterial liquid with 5% gastric mucin to make animals infected with 100% lethal bacteria, to obtain infection bacterial liquid.
(§2) The clinical route of administration of carrimycin is proposed to be oral administration, thus intragastric administration is adopted in carrimychin test. Levoisovalerylspiramycin I (obtained in Embodiment 1) and of crystalline compound of levoisovalerylspiramycin I (prepared in Embodiment 27) are fed to animals via […].
(§3) After the mice are infected, respectively feed each mouse 0.2 ml via intragastric administration at 0.5 to 6 h, and they have no adverse reaction. Observe the number of deaths in 7 days, and calculate the 50% effective dose (ED50) of each drug for the infected mouse and compare the protective effect of drugs by Bliss program.

[10] = system: pyogenic streptococcus 772; assay: Curative effect on mouse with abdominal infection (ED50); assay type: in vivo; conditions: Streptococcus, 772, 168 h, pyogenic streptococcus 772, challenging dose 6.9 × 10^3 CFU/0.5 ml, deaths in 7 days, Bliss, read-out: ED50
Description: as §1, §2, §3

[11] = system: pyogenic streptococcus 119; assay: as above; assay type: in vivo; conditions: Streptococcus, 119, 168 h, pyogenic streptococcus 119, challenging dose 4.9 × 10^4 CFU/0.5 ml, deaths in 7 days, Bliss, read-out: ED50
Description: as §1, §2, §3

[12] = system: pyogenic streptococcus 102; assay: as above; assay type: in vivo; conditions: Streptococcus, 102, 168 h, pyogenic streptococcus 102, challenging dose 7.8 × 10^4 CFU/0.5 ml, deaths in 7 days, Bliss, read-out: ED50
Description: as §1, §2, §3

[13] = system: streptococcus pneumoniae18; assay: MIC against the infecting test organism; assay type: cell-based, streptococcus pneumoniae; conditions: read-out: MIC
[14] = system: enterococcus32; assay: MIC against the infecting test organism; assay type: cell-based, enterococcus; conditions: Enterococcus, read-out: MIC
[15] = system: adult acute respiratory infections caused by sensitive bacteria; assay: Clinical test versus Azithromycin, multi-center random double blind; assay type: in vivo; conditions: patients 18 to 65 years
Description: Adopt a multi-center, random, two blind, double simulation control test, which is carried out in 5 hospitals concurrently according to the unified clinical testing program.
1. Patients from 18 to 65 years old (men and women);
2. Sensitive acute respiratory infections caused by sensitive bacteria include acute bacterial pharyngitis, acute suppurative tonsillitis, acute tracheobronchitis, mild pneumonia and acute nasosinusitis etc;
3. Any subject shall sign an informed consent before being selected.
4. All subjects shall be contracepted in the research period and within at least 3 months upon being dosed.
1. Those with hepatic or renal insufficiency (Blood Cr>1.5 mg/dl and ALT>normal upper limit)
2. The women in pregnancy or lactation
3. Those with gastrointestinal tract diseases, who cannot take drugs orally.
4. Those who take antibacterial within one week before the selection.
According to statistics on the test results by statistics experts, the clinical efficacy (FAS) is: […]

[16] = system: streptococcus pneumoniae57; assay: MIC against the infecting test organism; assay type: cell-based, streptococcus pneumoniae; conditions: read-out: MIC
[17] = system: staphylococcus aureus76; assay: MIC against the infecting test organism; assay type: cell-based, staphylococcus aureus; conditions: read-out: MIC

COC1C(O)CC(=O)OC(C)C/C=C/C=C/C(OC2CCC(N(C)C)C(C)O2)C(C)CC(CC=O)C1OC1OC(C)C(OC2CC(C)(O)C(OC(=O)CC(C)C)C(C)O2)C(N(C)C)C1O (stereo not drawn) [Levoisovalerylspiramycin I, levoisovalerylspiramycin I]
MIC [1]: 0.12 µg/mL (≈ 0.129 µM)
MIC [2]: 0.06 µg/mL (≈ 0.0647 µM)
MIC [3]: 0.016 µg/mL (≈ 0.0173 µM)
MIC [4]: 0.12 µg/mL (≈ 0.129 µM)
LD50 at 1 week ([5]; rat, in vivo, po): > 4500 mg/kg
Mortality rate (%) ([5]; rats, oral): 15%
mortality ([5]; rats, oral, deaths of 20 animals, observed one week): 3
MIC [6]: 0.5 µg/mL (≈ 0.539 µM)
MIC50 [7]: 1 µg/mL (≈ 1.08 µM)
MIC90 [7]: 32 µg/mL (≈ 34.5 µM)
MIC [8]: 0.025 to 0.125 µg/mL (≈ 0.027 to 0.135 µM)
Uu resistant effect [8]: favorable Uu resistant effect
protective effect (curative effect) on infected mouse [9]: good protective effect
ED50 [10]: 26.1 mg/kg
ED50 [11]: 57.2 mg/kg
ED50 [12]: 66.4 mg/kg
MIC [13]: 0.03 µg/mL (≈ 0.0324 µM)
MIC [14]: 0.5 µg/mL (≈ 0.539 µM)
adverse reaction [15]: 2.5%
clearance of pathogens [15]: 97.56%
clinical efficacy (FAS) [15]: 92.30%
MIC [16]: 0.06 µg/mL (≈ 0.0647 µM)
MIC [17]: 0.5 µg/mL (≈ 0.539 µM)

COC1C(OC(C)=O)CC(=O)OC(C)C/C=C/C=C/C(OC2CCC(N(C)C)C(C)O2)C(C)CC(CC=O)C1OC1OC(C)C(OC2CC(C)(O)C(OC(=O)CC(C)C)C(C)O2)C(N(C)C)C1O (stereo not drawn) [Levoisovalerylspiramycin II, levoisovalerylspiramycin II]
MIC [1]: 0.12 µg/mL (≈ 0.124 µM)
MIC [2]: 0.06 µg/mL (≈ 0.0619 µM)
MIC [3]: ≤ 0.016 µg/mL
MIC [4]: 0.12 µg/mL (≈ 0.124 µM)
LD50 at 1 week ([5]; rat, in vivo, po): > 4500 mg/kg
Mortality rate (%) ([5]; rat, in vivo, po, 1 week): 15%
mortality ([5]; rat, in vivo, po, 1 week): 3
MIC [6]: 0.5 µg/mL (≈ 0.516 µM)
MIC50 [7]: 1 µg/mL (≈ 1.03 µM)
MIC90 [7]: 16 µg/mL (≈ 16.5 µM)
MIC [8]: 0.025 to 0.125 µg/mL (≈ 0.0258 to 0.129 µM)
Uu resistant effect [8]: favorable Uu resistant effect
ED50 [10]: 24.6 mg/kg
ED50 [11]: 52.8 mg/kg
ED50 [12]: 63.2 mg/kg
MIC [13]: 0.03 µg/mL (≈ 0.031 µM)
MIC [14]: 0.25 µg/mL (≈ 0.258 µM)
adverse reaction [15]: 2.5%
clearance of pathogens [15]: 97.56%
clinical efficacy (FAS) [15]: 92.30%
MIC [16]: 0.06 µg/mL (≈ 0.0619 µM)
MIC [17]: 0.25 µg/mL (≈ 0.258 µM)

CCC(=O)OC1CC(=O)OC(C)C/C=C/C=C/C(OC2CCC(N(C)C)C(C)O2)C(C)CC(CC=O)C(OC2OC(C)C(OC3CC(C)(O)C(OC(=O)CC(C)C)C(C)O3)C(N(C)C)C2O)C1OC (stereo not drawn) [Levoisovalerylspiramycin III, levoisovalerylspiramycin III]
MIC [1]: 0.12 µg/mL (≈ 0.122 µM)
MIC [2]: 0.06 µg/mL (≈ 0.061 µM)
MIC [3]: 0.016 µg/mL (≈ 0.0163 µM)
MIC [4]: 0.12 µg/mL (≈ 0.122 µM)
LD50 at 1 week ([5]; rat, in vivo, po): > 4500 mg/kg
Mortality rate (%) ([5]; rat, in vivo, po, 1 week): 15%
mortality ([5]; rat, in vivo, po, 1 week): 3
MIC [6]: 0.5 µg/mL (≈ 0.509 µM)
MIC50 [7]: 2 µg/mL (≈ 2.03 µM)
MIC90 [7]: 64 µg/mL (≈ 65.1 µM)
Uu resistant effect [8]: favorable Uu resistant effect
ED50 [10]: 24.6 mg/kg
ED50 [11]: 52.8 mg/kg
ED50 [12]: 63.2 mg/kg
MIC [13]: 0.03 µg/mL (≈ 0.0305 µM)
MIC [14]: 0.25 µg/mL (≈ 0.254 µM)
adverse reaction [15]: 2.5%
clearance of pathogens [15]: 97.56%
clinical efficacy (FAS) [15]: 92.30%
MIC [16]: 0.06 µg/mL (≈ 0.061 µM)
MIC [17]: 0.25 µg/mL (≈ 0.254 µM)

CC[C@H]1OC(=O)[C@H](C)[C@@H](O[C@H]2C[C@@](C)(OC)[C@@H](O)[C@H](C)O2)[C@H](C)[C@@H](O[C@@H]2O[C@H](C)C[C@H](N(C)C)[C@H]2O)[C@](C)(O)C[C@@H](C)CN(C)[C@H](C)[C@@H](O)[C@]1(C)O [azithromycin, reference compound]
MIC [1]: 0.5 µg/mL (≈ 0.668 µM)
MIC [2]: 0.25 µg/mL (≈ 0.334 µM)
MIC [3]: 0.032 µg/mL (≈ 0.0427 µM)
MIC [4]: 0.25 µg/mL (≈ 0.334 µM)
MIC [6]: 4 µg/mL (≈ 5.34 µM)
MIC50 [7]: 8 µg/mL (≈ 10.7 µM)
MIC90 [7]: > 64 µg/mL
ED50 [10]: 46.9 mg/kg
ED50 [11]: 68.5 mg/kg
ED50 [12]: 159 mg/kg
MIC [13]: 0.06 µg/mL (≈ 0.0801 µM)
MIC [14]: 1 µg/mL (≈ 1.34 µM)
adverse reaction [15]: 7.6%
clearance of pathogens [15]: 92.86%
clinical efficacy (FAS) [15]: 89.61%
MIC [16]: 0.12 µg/mL (≈ 0.16 µM)
MIC [17]: 1 µg/mL (≈ 1.34 µM)

CC[C@H]1OC(=O)[C@H](C)[C@@H](O[C@H]2C[C@@](C)(OC)[C@@H](O)[C@H](C)O2)[C@H](C)[C@@H](O[C@@H]2O[C@H](C)C[C@H](N(C)C)[C@H]2O)[C@](C)(O)C[C@@H](C)C(=O)[C@H](C)[C@@H](O)[C@]1(C)O [erythrocin, reference compound]
MIC [1]: 0.5 µg/mL (≈ 0.681 µM)
MIC [2]: 0.5 µg/mL (≈ 0.681 µM)
MIC [3]: ≤ 0.016 µg/mL
MIC [4]: 0.5 µg/mL (≈ 0.681 µM)
MIC [6]: 4 µg/mL (≈ 5.45 µM)
MIC50 [7]: 4 µg/mL (≈ 5.45 µM)
MIC90 [7]: > 64 µg/mL
MIC [8]: 5 µg/mL (≈ 6.81 µM)
Uu resistant effect [8]: poorest
ED50 [10]: 101 mg/kg
ED50 [11]: 234 mg/kg
ED50 [12]: 361 mg/kg
MIC [13]: 0.06 µg/mL (≈ 0.0818 µM)
MIC [14]: 2 µg/mL (≈ 2.73 µM)
MIC [16]: 0.25 µg/mL (≈ 0.341 µM)
MIC [17]: 1 µg/mL (≈ 1.36 µM)
